Holding throughout (test): NCI anticancer screen, dose series, 48 h
The test system of test [1] is SNB-19 CNS.
Test [2] relates to RXF 393 renal.
Test [3] relates to NCI/ADR-RES ovarian.
Test [4] deals with DU-145 prostate.
For test [5], the system named is SK-MEL-5 melanoma.
Test [6] relates to MOLT-4 leukemia.
In test [7] the test system is BT-549 breast.
The test system of test [8] is LOX IMVI melanoma.
Test [9] has as its system COLO 205 colon.
Test [10] has as its system HCC-2998 colon.

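Compound exposure: 48 hours, 5 concentrations, 96-well plates. Abbreviation: GI50, concentration required for 50% inhibition of growth. TGI: concentration producing complete growth inhibition.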 Some results are limits rather than exact numbers.

In the case of `CCN1CCCCCCCCCC(=N/O)/C(=N\O)C1`, the TGI in test [1], in test [2], in [3], in test [4], in [5] and in test [6] was > 100 µM throughout. For the same compound, the TGI in test [7] and in test [8] was > 100 µM in each case.
Consider `O=C(CC(O)(C(F)(F)F)C(F)(F)F)c1cccs1`, for which the TGI in test [1], in [9], in test [3], in test [10], in test [4] and in [5] was > 10 µM throughout. The TGI in test [6], in test [7] and in test [8] was > 10 µM throughout.
As to `CC(=O)NC(CCc1ccc(Cl)c(Cl)c1)c1cccc(O)c(=O)c1` (stereo not given), the GI50 in [1] was 0.919 µM; in [2], 0.722 µM; in test [9], 0.363 µM; in [3] it was 0.338 µM; in test [10] it was 1.47 µM; in test [4], 1.18 µM. Besides, the GI50 is 0.234 µM in test [5], 0.74 µM in [6], 0.803 µM in test [7] and 0.559 µM in test [8]. In addition, the TGI was 18.8 µM in test [1]; 14.9 µM in [2]; 18.6 µM in test [9]; 4.92 µM in test [3]; 13.9 µM in [10]; > 49.2 µM in [4]. For the same compound, the TGI is 1.14 µM in test [5], 14.4 µM in test [6], 12.8 µM in [7] and 7.5 µM in test [8].
With `N=C1C(c2nc3ccccc3c(=O)[nH]2)=C(O)CN1c1cccc(Cl)c1`, the GI50 in [1] was 6.74 µM; in test [2] it was 2.6 µM; in test [9] it was 5.07 µM; in test [3], 3.16 µM; in test [10], 34.3 µM; in test [4], 5.12 µM. In addition, the GI50 in test [5] was 1.26 µM; in test [6], 4.51 µM; in [7], 13.7 µM; in test [8], 5.68 µM. Further, the TGI in test [1] is > 100 µM; in test [2] it was > 27.3 µM; in test [9] it was > 100 µM; in [3], > 100 µM; in test [10], > 100 µM; in [4] it was > 57.9 µM. Moreover, the TGI in test [5] was 7.55 µM; in test [6], > 100 µM; in test [7], > 100 µM; in test [8], > 100 µM.
As for `Nc1ncc(-c2ccc3ncnc(N4CCc5cc(F)c(Cl)cc54)c3c2)cc1C=O`, the GI50 in [1] was 2.28 µM; in [2] it was 0.471 µM; in test [9], 1.9 µM; in [3], 2.82 µM; in test [10], 2.29 µM; in [4], 0.936 µM. Besides, the GI50 in test [5] is 1.87 µM; in test [6], 1.01 µM; in [7], 1.31 µM; in test [8] it was 2.52 µM. In addition, the TGI is > 100 µM in [1]; 2.14 µM in test [2]; > 100 µM in test [9]; > 100 µM in test [3]; > 100 µM in test [10]; > 100 µM in [4]. Moreover, the TGI in [5] was 4.54 µM; in [6] it was 6.56 µM; in test [7], > 100 µM; in test [8], > 100 µM.
With `Cn1ccc(S(=O)(=O)N2CCC[C@H](Nc3nccc(-c4c(-c5cccc(O)c5)nc5occn45)n3)C2)n1`, the GI50 in test [1] is 46.4 µM; in [2], 4.47 µM; in test [9], 0.0913 µM; in test [3], > 78.7 µM; in test [10] it was 15 µM; in test [4], 16.6 µM. The GI50 was 3.51 µM in test [5], 17.4 µM in test [6], 12.7 µM in [7] and 2.87 µM in test [8]. Besides, the TGI was > 100 µM in [1]; 18.4 µM in test [2]; 28.6 µM in [9]; > 100 µM in test [3]; 34.3 µM in [10]; > 100 µM in test [4]. The TGI in [5] turned out to be 18.6 µM; in test [6] it was 63.7 µM; in test [7], 52.9 µM; in test [8], 18.7 µM.
As for `Cc1c(Br)c(Br)c2c3c1nc(N1CCNCC1)n3CCC2`, the GI50 in [1] was 1.56 µM; in test [2], 1.7 µM; in test [9], 1.86 µM; in test [3] it was 1.8 µM; in test [10], 1.81 µM; in test [4], 1.67 µM. The GI50 in [5] is 1.89 µM; in test [7] it was 5.36 µM; in [8], 1.49 µM. For the same compound, the TGI in test [1] amounted to 3.01 µM; in test [2], 3.41 µM; in test [9] it was 3.63 µM; in test [3] it was 3.82 µM; in [10], 3.51 µM; in [4], 3.05 µM. In addition, the TGI came to 3.42 µM in test [5], 20.2 µM in test [7] and 2.94 µM in test [8].
As to `CC[C@]1(O)CC2CN(CCc3c([nH]c4ccccc34)C(C(=O)OC)(c3cc4c(cc3OC)N(C=O)[C@H]3[C@@](O)(C(=O)OC)[C@H](OC(C)=O)[C@]5(CC)[C@@H]6C[C@@H]6CN6CC[C@]43[C@@H]65)C2)C1` (stereo not given in full), the GI50 in [1] was < 0.00325 µM; in test [9], < 0.00325 µM; in [3] it was 0.179 µM; in test [10] it was < 0.00325 µM; in test [4] it was < 0.00325 µM; in test [5], < 0.00325 µM. Moreover, the GI50 in test [6], in test [7] and in [8] was < 0.00325 µM in each case. The TGI was > 32.5 µM in [1]; < 0.00325 µM in [9]; 1.23 µM in test [3]; 9.23 µM in [10]; < 0.00325 µM in [4]; 0.0119 µM in test [5]. Also, the values for the TGI in [6], in test [7] and in test [8] were 0.339 µM, 0.015 µM and > 26 µM, respectively.
In the case of `CCN1C[C@@H](C)n2c(c(O)c3c(=O)n(Cc4ccc(F)c(Cl)c4)nc(C(=O)NC)c32)C1=O`, the GI50 is 3.37 µM in test [1]; 18.3 µM in test [9]; 1.62 µM in test [3]; 2.54 µM in test [10]; 3.57 µM in test [4]; 1.98 µM in [5]. Further, the GI50 in [6] was 4.18 µM; in [7] it was 3.49 µM; in [8], 3.13 µM. The TGI is > 100 µM in test [1]; 40.3 µM in test [9]; 7.79 µM in test [3]; 6.08 µM in test [10]; 13.8 µM in test [4]; 4.49 µM in [5]. Further, the TGI in test [6] is > 100 µM; in test [7] it was > 100 µM; in test [8], 18 µM.
As for `CCCCNC(=O)CC1=C(C)/C(=C/c2[nH]c(-c3ccc[nH]3)cc2OC)N=C1C`, the GI50 in test [1] is 4.09 µM; in test [2], 3.29 µM; in [9], 1.68 µM; in [3], 3.02 µM; in test [4] it was 4 µM; in [6], 1.93 µM. Besides, the GI50 in test [7] is 3.74 µM; in test [8], 1.56 µM. Further, the TGI is 30.1 µM in test [1]; 11.6 µM in test [2]; 4.04 µM in test [9]; 9.89 µM in test [3]; 16.6 µM in test [4]; 9 µM in test [6]. Besides, the TGI in [7] is 19.9 µM; in test [8], 3.17 µM.
For `O=C(O)c1cc(-c2ccc(-c3ccccc3)cc2)nc2cc3ccccc3cc12`, the TGI in test [1], in [2], in [9], in test [3], in [4] and in test [5] was > 100 µM throughout. The TGI in test [6], in test [7] and in test [8] was > 100 µM each time.
Take `COc1cc2c3c(n(CCCNCCCCN)c(=O)c2cc1OC)-c1cc2c(cc1C3=O)OCO2`: the GI50 is 2.65 µM in test [1]; 0.301 µM in test [2]; 6.02 µM in test [9]; 17.3 µM in test [3]; 0.0764 µM in test [4]; 2.95 µM in test [5]. The GI50 was 2.43 µM in test [7] and 0.226 µM in test [8]. The TGI in test [1] is 18.8 µM; in test [2], 11.4 µM; in [9], > 46 µM; in [3], > 90.8 µM; in test [4], 5.16 µM; in test [5], 19.2 µM. The TGI in [6] is > 19.6 µM; in test [7] it was 16.6 µM; in test [8], 10.1 µM.
As to `N#Cc1ncc(-c2ccc(C(F)(F)F)cc2)c(NC2CCCCCC2)n1`, the GI50 is 15.3 µM in test [1]; 5.12 µM in test [2]; 13.2 µM in test [9]; 18.1 µM in test [3]; 13.2 µM in test [10]; 44.8 µM in test [4]. For the same compound, the GI50 in [5] is 33.5 µM; in test [6] it was 7.42 µM; in [7] it was 29.1 µM. Moreover, the TGI in test [1] is > 100 µM; in test [2], > 100 µM; in [9] it was 62.1 µM; in [3], > 100 µM; in test [10], > 100 µM; in [4], > 100 µM. Moreover, the TGI in test [5], in test [6] and in test [7] was > 100 µM throughout.
On to `CC1(C)CCC2(C(=O)O)C(O)CC3(C)C(=CCC4C5(C)CCC(OC6OCC(O)C(O)C6OC6OCC(O)C(O)C6OC6OCC(O)C(OC7OC(CO)C(O)C(O)C7O)C6O)C(C)(C)C5CCC43C)C2C1` (stereo not given), for which the TGI is 43.6 µM in [1]; 59.1 µM in [2]; > 100 µM in test [9]; > 100 µM in test [3]; > 100 µM in [10]; > 100 µM in test [4]. In addition, the values for the TGI in test [5], in [7] and in test [8] were > 100 µM, 86.4 µM and > 100 µM, respectively.
For the compound `C=C1CC[C@@](C)(c2cc(Br)c(C)cc2OC(C)=O)[C@H]1C`, the GI50 was 15.5 µM in [1]; 14.8 µM in [2]; 17.6 µM in test [9]; 12.1 µM in test [3]; 15.9 µM in test [4]; 15.6 µM in [5]. For the same compound, the GI50 in [6] is 9.99 µM; in [7], 19 µM; in test [8], 14.8 µM. Also, the TGI in test [1] amounted to 31.2 µM; in test [2], 32.5 µM; in test [9] it was 31.3 µM; in test [3] it was 25 µM; in [4] it was 31.9 µM; in [5], 29.2 µM. The TGI is 24.8 µM in [6], 34.1 µM in [7] and 31 µM in test [8].
Take `COc1cccc(N2C(=N)/C(=C3\Nc4ccccc4S3)CC2=O)c1`: the GI50 is 18.9 µM in test [1]; 2.61 µM in [2]; 9.25 µM in test [9]; 15.8 µM in [3]; 44.3 µM in [4]; 7.78 µM in [5]. In addition, the GI50 in test [6] was 2.4 µM; in test [7], 44.9 µM; in [8], 3.21 µM. In addition, the TGI in test [1] is > 100 µM; in [2], 11.1 µM; in test [9], > 100 µM; in [3] it was > 100 µM; in [4], > 100 µM; in [5] it was > 100 µM. Besides, the TGI in test [6], in test [7] and in test [8] was > 100 µM each time.
Consider `Cc1[nH]c(N)nc(=S)c1CCCNc1ccccc1`, for which the TGI in test [1] is > 100 µM; in test [2], > 100 µM; in [9] it was 66.9 µM; in test [3], > 100 µM; in test [4], > 100 µM; in test [5] it was 80 µM. For the same compound, the TGI in test [6] was 21.1 µM; in test [7] it was > 100 µM; in test [8], > 100 µM.

(Values after PubChem BioAssay (NCI).)
